Twelve compounds from PMC6009921, “Carbon- versus sulphur-based zinc binding groups for carbonic anhydrase inhibitors?” (Journal of Enzyme Inhibition and Medicinal Chemistry, 2018) can be followed below.

What all share (assay): stopped-flow CO2 hydration
Format in all cases: biochemical

Assay [1] has as its target T1, hCA IX (Homo sapiens, UniProt Q16790).
T1 construct: gene CA9; recombinant, obtained in-house
From the text:
stopped-flow CO2 hydration on hCA IX

Assay [2] concerns the target T2, hCA I (Homo sapiens, UniProt P00915).
T2 construct: gene CA1; recombinant, obtained in-house

Assay [3] deals with T3, hCA II (Homo sapiens, UniProt P00918).
T3 construct: gene CA2; recombinant, obtained in-house

Assay [4] addresses T4, hCA XII (Homo sapiens, UniProt O43570).
T4 construct: gene CA12; recombinant, obtained in-house

For assay [5], the target named is T5, hCA VB (Homo sapiens, UniProt Q9Y2D0).
T5 construct: gene CA5B; recombinant, obtained in-house
The following applies: read-out: KI (μM)^a^,^b / hCA VB. The text has this:
stopped-flow CO2 hydration on hCA VB

For assay [6], the target named is T6, hCA XIV (Homo sapiens, UniProt Q9ULX7).
T6 construct: gene CA14; recombinant, obtained in-house
The following applies: read-out: KI (μM)^a^,^b / hCA XIV. The text has this: stopped-flow CO2 hydration on hCA XIV

Assay [7] addresses T7, hCA VI (Homo sapiens, UniProt P23280).
T7 construct: gene CA6; recombinant, obtained in-house
As to conditions: read-out: KI (μM)^a^,^b / hCA VI. The text has this: stopped-flow CO2 hydration on hCA VI

The target in assay [8] is T8, hCA IV (Homo sapiens, UniProt P22748).
T8 construct: gene CA4; recombinant, obtained in-house
The following applies: read-out: KI (μM)^a^,^b / hCA IV. The text has this:
stopped-flow CO2 hydration on hCA IV

For assay [9], the target named is T9, hCA III (Homo sapiens, UniProt P07451).
T9 construct: gene CA3; recombinant, obtained in-house
The following applies: read-out: KI (μM)^a^,^b / hCA III. The text has this: stopped-flow CO2 hydration on hCA III

Assay [10] deals with T10, mCA XIII (Mus musculus, UniProt Q9D6N1).
T10 construct: gene Ca13; recombinant, obtained in-house
As to conditions: read-out: KI (μM)^a^,^b / mCA XIII. The text has this: stopped-flow CO2 hydration on mCA XIII

In assay [11] the target is T11, hCA VA (Homo sapiens, UniProt P35218).
T11 construct: gene CA5A; recombinant, obtained in-house
As to conditions: read-out: KI (μM)^a^,^b / hCA VA. The text has this: stopped-flow CO2 hydration on hCA VA

The target of assay [12] is T12, hCA VII (Homo sapiens, UniProt P43166).
T12 construct: gene CA7; recombinant, obtained in-house
The following applies: read-out: KI (μM)^a^,^b / hCA VII.

In assay [13] the target is T2, hCA I. The following applies: CO2 1.7-17 mM, 20 mM Hepes pH 7.5, 20 mM Na2SO4, 15 min preincubation, room temperature; unreliable: table and text (69.8) disagree. The text has this: stopped-flow CO2 hydration on hCA I
Where [14] appears, read: read-out: KI (μM)^a^,^b / hCA IX^c.
Setting [15] is: read-out: KI (μM)^a^,^b / hCA I.
The mark [16] stands for this setting: read-out: KI (μM)^a^,^b / hCA II.
[17] abbreviates: read-out: KI (μM)^a^,^b / hCA XII^c.
The mark [18] stands for this setting: CO2 1.7-17 mM, 20 mM Hepes pH 7.5, 20 mM Na2SO4, 15 min preincubation, room temperature, read-out: KI (μM)^a^,^b / hCA I.

Like-named read-outs stand apart in the source and are kept apart here. A value given as a limit tells only on which side of the number the result lay.

T9 sequence (P07451 2-260): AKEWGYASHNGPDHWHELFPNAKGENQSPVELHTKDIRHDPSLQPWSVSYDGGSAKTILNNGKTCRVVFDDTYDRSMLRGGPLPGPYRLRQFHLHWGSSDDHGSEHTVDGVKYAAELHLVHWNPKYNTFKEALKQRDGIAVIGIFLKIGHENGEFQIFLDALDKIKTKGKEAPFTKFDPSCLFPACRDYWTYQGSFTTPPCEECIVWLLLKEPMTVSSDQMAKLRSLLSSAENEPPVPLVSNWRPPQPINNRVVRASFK
T7 sequence (P23280 18-308): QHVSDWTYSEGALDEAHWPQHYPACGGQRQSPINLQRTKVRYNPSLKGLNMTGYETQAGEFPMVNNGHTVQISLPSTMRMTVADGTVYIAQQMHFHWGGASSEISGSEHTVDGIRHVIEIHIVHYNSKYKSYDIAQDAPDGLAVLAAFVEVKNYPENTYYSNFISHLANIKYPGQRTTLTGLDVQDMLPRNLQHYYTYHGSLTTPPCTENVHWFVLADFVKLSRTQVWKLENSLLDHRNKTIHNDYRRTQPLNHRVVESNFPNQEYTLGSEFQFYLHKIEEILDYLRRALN
T6 sequence (Q9ULX7 16-290 limits assumed): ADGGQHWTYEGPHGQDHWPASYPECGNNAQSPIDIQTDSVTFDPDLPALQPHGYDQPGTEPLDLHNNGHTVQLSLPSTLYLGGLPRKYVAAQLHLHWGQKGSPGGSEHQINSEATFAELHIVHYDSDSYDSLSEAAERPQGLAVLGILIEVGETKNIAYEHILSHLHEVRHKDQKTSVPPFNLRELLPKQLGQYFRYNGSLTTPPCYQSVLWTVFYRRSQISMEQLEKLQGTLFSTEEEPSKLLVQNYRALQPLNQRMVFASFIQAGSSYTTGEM
T11 sequence (P35218 39-305): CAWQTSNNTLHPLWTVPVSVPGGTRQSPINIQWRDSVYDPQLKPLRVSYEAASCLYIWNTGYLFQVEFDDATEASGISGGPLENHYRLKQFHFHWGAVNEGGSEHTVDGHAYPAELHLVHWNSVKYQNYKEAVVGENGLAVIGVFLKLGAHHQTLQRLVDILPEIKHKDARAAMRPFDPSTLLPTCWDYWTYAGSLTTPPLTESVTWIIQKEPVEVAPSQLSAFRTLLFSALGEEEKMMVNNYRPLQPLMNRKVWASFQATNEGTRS
T8 sequence (P22748 19-284): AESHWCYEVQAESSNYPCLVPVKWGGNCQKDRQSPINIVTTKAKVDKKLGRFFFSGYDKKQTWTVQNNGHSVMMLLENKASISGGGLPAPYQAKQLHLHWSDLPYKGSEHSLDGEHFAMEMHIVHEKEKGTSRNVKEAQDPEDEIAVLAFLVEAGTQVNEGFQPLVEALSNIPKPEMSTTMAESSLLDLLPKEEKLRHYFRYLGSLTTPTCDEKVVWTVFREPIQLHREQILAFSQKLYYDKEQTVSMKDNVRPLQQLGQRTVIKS
T4 sequence (O43570 30-289 limits assumed): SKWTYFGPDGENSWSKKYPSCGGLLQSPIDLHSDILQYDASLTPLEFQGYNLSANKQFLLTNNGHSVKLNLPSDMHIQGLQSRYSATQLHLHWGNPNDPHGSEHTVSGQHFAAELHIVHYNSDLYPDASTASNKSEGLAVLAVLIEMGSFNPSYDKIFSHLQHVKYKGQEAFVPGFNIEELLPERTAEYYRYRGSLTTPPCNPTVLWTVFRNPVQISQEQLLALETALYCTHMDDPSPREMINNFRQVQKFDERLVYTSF
T5 sequence (Q9Y2D0 34-317): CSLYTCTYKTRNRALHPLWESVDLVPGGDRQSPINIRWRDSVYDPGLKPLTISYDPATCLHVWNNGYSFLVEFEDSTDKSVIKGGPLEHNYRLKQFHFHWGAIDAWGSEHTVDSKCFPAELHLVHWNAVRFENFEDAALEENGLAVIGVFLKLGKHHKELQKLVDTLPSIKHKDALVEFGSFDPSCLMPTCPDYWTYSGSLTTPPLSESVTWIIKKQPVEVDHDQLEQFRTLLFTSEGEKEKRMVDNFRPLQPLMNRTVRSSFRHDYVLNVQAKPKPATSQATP
T10 sequence (Q9D6N1 whole entry): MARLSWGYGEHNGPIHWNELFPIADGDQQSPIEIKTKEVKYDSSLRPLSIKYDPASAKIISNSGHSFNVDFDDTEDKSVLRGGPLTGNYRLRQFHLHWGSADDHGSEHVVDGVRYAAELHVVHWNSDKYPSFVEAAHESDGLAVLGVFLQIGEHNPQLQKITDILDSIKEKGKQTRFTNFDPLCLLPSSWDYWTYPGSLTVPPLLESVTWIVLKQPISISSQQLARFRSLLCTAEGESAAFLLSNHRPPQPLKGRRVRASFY
T2 sequence (P00915 2-261): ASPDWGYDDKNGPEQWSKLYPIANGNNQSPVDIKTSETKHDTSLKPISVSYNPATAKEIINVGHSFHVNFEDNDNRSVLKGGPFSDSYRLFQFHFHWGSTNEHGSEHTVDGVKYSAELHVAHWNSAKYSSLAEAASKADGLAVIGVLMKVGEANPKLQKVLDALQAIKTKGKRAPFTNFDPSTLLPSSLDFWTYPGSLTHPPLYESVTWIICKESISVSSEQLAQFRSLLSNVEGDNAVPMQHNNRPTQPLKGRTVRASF
T12 sequence (P43166 whole entry): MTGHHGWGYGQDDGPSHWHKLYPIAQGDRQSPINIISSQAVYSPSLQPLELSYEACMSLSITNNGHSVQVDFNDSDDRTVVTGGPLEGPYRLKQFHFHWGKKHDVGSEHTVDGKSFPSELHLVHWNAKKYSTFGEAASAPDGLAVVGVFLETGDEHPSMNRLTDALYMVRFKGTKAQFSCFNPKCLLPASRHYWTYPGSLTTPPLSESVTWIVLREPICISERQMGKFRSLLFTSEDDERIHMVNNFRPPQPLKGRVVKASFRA

On to `NS(=O)(=O)Nc1ccccc1` [2b, sulphamide 2b], for which the Ki in assay [1] (read-out: hCA IX) came out at 0.071 µM.

Turning to `NC(=O)Oc1ccccc1` [7a, carbamate 7a], the Ki in assay [1] (read-out: hCA IX) came out at 10.1 µM; in [2] (read-out: hCA I), 720 µM; in assay [3] (read-out: hCA II) it was 110 µM; in assay [4] (read-out: hCA XII), 2.81 µM.

In the case of `O=S(=O)(O)c1ccccc1` [compound 1, benzenesulphonic acid], the Ki in assay [5] is 79.8 µM; in assay [6] it was 8.79 µM; in assay [7], 8.8 µM; in assay [1] (setting [14]), 9.55 µM; in assay [8], 9.1 µM; in assay [2] (setting [15]) it was 8.65 µM. The Ki was 9.3 µM in assay [3] (setting [16]); 6.45 µM in [4] (setting [17]); 6.63 µM in [9]; 8.72 µM in [10]; 80.9 µM in assay [11]; 7.93 µM in assay [12].

On to `NS(=O)(=O)c1ccccc1` [compound 2, benzenesulphonamide], for which the Ki in [5] was 8.82 µM; in assay [6], 0.092 µM; in [7] it was 0.097 µM; in assay [1] (read-out: KI (μM)^a^,^b / hCA VI), 0.097 µM; in [8], 7.96 µM; in [9] it was 2.26 µM. Further, the Ki in [10] was found to be 0.1 µM; in assay [11], 1.68 µM.

In the case of `NNS(=O)(=O)c1ccccc1` [compound 3, N-amino sulphonamide 3], the Ki is 95.2 µM in assay [5]; 3.81 µM in assay [6]; 74.4 µM in [7]; 51.7 µM in assay [1] (setting [14]); 78.4 µM in [8]; 5.31 µM in assay [3] (setting [16]). The Ki worked out at 2.42 µM in assay [4] (setting [17]); 6.28 µM in [9]; 5.96 µM in assay [10]; 7.75 µM in assay [11]; 8.56 µM in [12]. In assay [13], the “KI (μM)^a^,^b / hCA I” value turned out to be 9.8 µM.

For `O=S(=O)(NO)c1ccccc1` [compound 4, N-hydroxysulphonamide 4], the Ki in assay [5] stood at 67.9 µM; in assay [6], 1.66 µM; in assay [7], 86.2 µM; in assay [1] (setting [14]) it was 60.3 µM; in assay [8] it was 24.6 µM; in [2] (setting [15]), 2.73 µM. Besides, the Ki in [3] (setting [16]) came to 5.47 µM; in [4] (setting [17]), 1.53 µM; in assay [9], 4.42 µM; in assay [11], 5.28 µM; in [12] it was 8.73 µM.

`CONS(=O)(=O)c1ccccc1` [compound 5, N-methoxysulphonamide 5]: the Ki in [5] was 10.7 µM; in [6], 1.57 µM; in assay [7], 27 µM; in assay [1] (setting [14]) it was 64.3 µM; in assay [8] it was 39.5 µM; in [2] (setting [15]), over 1000 µM. Further, the Ki in [3] (setting [16]) came to 8.96 µM; in assay [4] (setting [17]), 8.32 µM; in [9] it was 5.72 µM; in assay [11], 6.7 µM; in assay [12], 9.56 µM.

With `O=C(O)c1ccccc1` [compound 6, benzoic acid], the Ki is 9.6 µM in assay [5]; 0.98 µM in [6]; 91.6 µM in assay [7]; 66.5 µM in assay [1] (setting [14]); 434 µM in assay [8]; 730 µM in [2] (setting [18]). For the same compound, the Ki in assay [3] (setting [16]) is 30.1 µM; in [4] (setting [17]), 20.4 µM; in assay [9], 35.7 µM; in assay [11], 7.12 µM; in assay [12], 92.2 µM.

For the compound `NC(=O)c1ccccc1` [compound 7, carboxamide 7], the Ki was found to be 83.1 µM in [5]; 27 µM in assay [6]; 82.6 µM in assay [7]; 3.67 µM in assay [1] (setting [14]); 381 µM in assay [8]; 324 µM in assay [2] (setting [15]). Also, the Ki came out at 93.2 µM in assay [3] (setting [16]); 11.2 µM in assay [4] (setting [17]); 35.7 µM in [9]; 46.8 µM in [11]; 76.8 µM in [12].

On to `NNC(=O)c1ccccc1` [compound 8, hydrazide 8], for which the Ki in assay [5] is 75.9 µM; in assay [6] it was 0.99 µM; in [7], 63.5 µM; in [1] (setting [14]) it was 48.4 µM; in assay [8], 335 µM; in assay [2] (setting [15]), 91.2 µM. In addition, the Ki in assay [3] (setting [16]) is 231 µM; in [4] (setting [17]), 45 µM; in assay [9], 40.2 µM; in [11], 59.3 µM; in [12], 76.7 µM.

In the case of `O=C(NO)c1ccccc1` [compound 9, hydroxamic acid 9], the Ki in assay [5] worked out at 53.6 µM; in assay [6], 0.94 µM; in assay [7], 78.1 µM; in assay [1] (CO2 1.7-17 mM, 20 mM Hepes pH 7.5, 20 mM Na2SO4, 15 min preincubation, room temperature, read-out: KI (μM)^a^,^b / hCA IX^c), 45.9 µM; in assay [8], 84.7 µM; in assay [2] (setting [18]), 83.1 µM. The Ki came out at 179 µM in assay [3] (CO2 1.7-17 mM, 20 mM Hepes pH 7.5, 20 mM Na2SO4, 15 min preincubation, room temperature, read-out: KI (μM)^a^,^b / hCA II); 44.8 µM in assay [9]; 67.4 µM in [11]; 70.7 µM in [12].

In the case of `CONC(=O)c1ccccc1` [compound 10, methylated hydroxamate 10], the Ki in [5] amounted to 57.3 µM; in assay [6], 10 µM; in [7], 89.9 µM; in assay [1] (setting [14]), 57.5 µM; in assay [8] it was 111 µM; in assay [2] (setting [15]), 72.5 µM. Also, the Ki was determined as 341 µM in [3] (setting [16]); 28.5 µM in assay [4] (setting [17]); 37.3 µM in assay [9]; 89.1 µM in assay [11]; 72.2 µM in [12].
